Inconclusive results and toxic doses are left out.
Tested on: L1210 leukemia ip in BDF1 mice, survival T/C
Assay: NCI In Vivo Anticancer Drug Screen. Data for tumor model L1210 Leukemia (intraperitoneal) in B6D2F1 (BDF1) mice
Details: endpoint: mean survival time, higher = longer survival
Method in brief: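 Tumor cells were implanted, animals were treated, and survival was followed. The result divides the treated measurement by the vehicle-control measurement.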

[1] = dose: 100.0 mg/kg/injection, schedule: Q01DX009 (ip), vehicle: Klucel (hydroxypropylcellulose) (HPC)
[2] = dose: 100.0 mg/kg/injection, schedule: Q04DX003 (ip), vehicle: Klucel (hydroxypropylcellulose) (HPC)
[3] = dose: 200.0 mg/kg/injection, schedule: Q01DX009 (ip), vehicle: Klucel (hydroxypropylcellulose) (HPC)
[4] = dose: 200.0 mg/kg/injection, schedule: Q04DX003 (ip), vehicle: Klucel (hydroxypropylcellulose) (HPC)
[5] = dose: 400.0 mg/kg/injection, schedule: Q01DX009 (ip), vehicle: Klucel (hydroxypropylcellulose) (HPC)
[6] = dose: 400.0 mg/kg/injection, schedule: Q04DX003 (ip), vehicle: Klucel (hydroxypropylcellulose) (HPC)
[7] = dose: 100.0 mg/kg/injection, schedule: Q04DX003 (ip), vehicle: saline with Tween-80
[8] = dose: 200.0 mg/kg/injection, schedule: Q04DX003 (ip), vehicle: saline with Tween-80
[9] = dose: 400.0 mg/kg/injection, schedule: Q04DX003 (ip), vehicle: saline with Tween-80
[10] = dose: 100.0 mg/kg/injection, schedule: Q01DX001 (ip), vehicle: Klucel (hydroxypropylcellulose) (HPC)
[11] = dose: 200.0 mg/kg/injection, schedule: Q01DX001 (ip), vehicle: Klucel (hydroxypropylcellulose) (HPC)
[12] = dose: 100.0 mg/kg/injection, schedule: Q01DX001 (ip), vehicle: saline with Tween-80
[13] = dose: 200.0 mg/kg/injection, schedule: Q01DX001 (ip), vehicle: saline with Tween-80
[14] = dose: 400.0 mg/kg/injection, schedule: Q01DX001 (ip), vehicle: saline with Tween-80
[15] = dose: 100.0 mg/kg/injection, schedule: Q01DX001 (ip), vehicle: carboxymethylcellulose (CMC)
[16] = dose: 200.0 mg/kg/injection, schedule: Q01DX001 (ip), vehicle: carboxymethylcellulose (CMC)
[17] = dose: 400.0 mg/kg/injection, schedule: Q01DX001 (ip), vehicle: carboxymethylcellulose (CMC)
[18] = dose: 400.0 mg/kg/injection, schedule: Q01DX001 (ip), vehicle: Klucel (hydroxypropylcellulose) (HPC)
[19] = dose: 200.0 mg/kg/injection, schedule: Q01DX001 (ip), vehicle: saline
[20] = dose: 400.0 mg/kg/injection, schedule: Q01DX001 (ip), vehicle: saline
[21] = dose: 100.0 mg/kg/injection, schedule: Q01DX009 (ip), vehicle: saline with Tween-80
[22] = dose: 200.0 mg/kg/injection, schedule: Q01DX009 (ip), vehicle: saline with Tween-80
[23] = dose: 400.0 mg/kg/injection, schedule: Q01DX009 (ip), vehicle: saline with Tween-80

`CCOC(=O)C1=C(C)NC(=O)NC1c1ccc(N(CCCl)CCCl)cc1` (centres undefined) was tested, and the T/C [1] was 93 % of control, the T/C [2] was 97 % of control and the T/C [3] was 112 % of control. For the same molecule, the T/C [4] was 90 % of control, the T/C [5] was 104 % of control and the T/C [6] was 101 % of control.

In the case of `CCOC(=O)c1ccccc1N(O)C(=O)Nc1ccc(Cl)cc1`, the T/C [7] is reported as 100 % of control, the T/C [8] is reported as 105 % of control and the T/C [9] is reported as 103 % of control.

In the case of `COc1ccc2c(c1)CCC1C2=CCC2C(=O)CCC(=O)C21` (centres undefined), the T/C (dose: 50.0 mg/kg/injection, schedule: Q01DX001 (ip), vehicle: Klucel (hydroxypropylcellulose) (HPC)) is reported as 101 % of control, the T/C [10] is reported as 101 % of control and the T/C [11] is reported as 93 % of control.

With `CC1(C)CN(C(C)(C)C)CC(C)(C)C(O)C1=O` (centres undefined) the T/C [12] was 96 % of control, the T/C [13] was 91 % of control and the T/C [14] was 93 % of control.

In the case of `O=C1c2ccccc2C(=O)N1c1ncc2ccccc2n1`, the T/C [12] is reported as 101 % of control, the T/C [13] is reported as 92 % of control and the T/C [14] is reported as 95 % of control.

In the case of `Cc1ccc(S(=O)(=O)OC2C(C)(C)C(=O)C2(C)C)cc1`, the T/C [15] is reported as 97 % of control, the T/C [16] is reported as 92 % of control and the T/C [17] is reported as 92 % of control.

For `Cc1cccc(N=Cc2cccc([N+](=O)[O-])c2)c1`, the T/C (dose: 50.0 mg/kg/injection, schedule: Q04DX003 (ip), vehicle: Klucel (hydroxypropylcellulose) (HPC)) was 98 % of control, the T/C [10] was 100 % of control and the T/C [2] was 98 % of control. The T/C [11] was 94 % of control, the T/C [4] was 98 % of control and the T/C [18] was 92 % of control.

`Nc1nc(N)c(CCCCc2ccccc2)c(N)n1` was tested, and the T/C (dose: 50.0 mg/kg/injection, schedule: Q01DX009 (ip), vehicle: Klucel (hydroxypropylcellulose) (HPC)) was 87 % of control, the T/C (dose: 50.0 mg/kg/injection, schedule: Q01DX Z (ip), vehicle: carboxymethylcellulose (CMC)) was 95 % of control and the T/C [1] was 95 % of control.

`Cc1ccc(S(=O)(=O)N=P(c2ccccc2)(c2ccccc2)c2ccccc2)cc1` was tested, and the T/C (dose: 50.0 mg/kg/injection, schedule: Q01DX001 (ip), vehicle: carboxymethylcellulose (CMC)) was 90 % of control, the T/C [15] was 95 % of control and the T/C [7] was 86 % of control. For the same molecule, the T/C [16] was 92 % of control, the T/C [8] was 86 % of control and the T/C [17] was 86 % of control. For the same molecule, the T/C [9] was 91 % of control.

With `C#CCSP(=O)(O)O` the T/C (dose: 25.0 mg/kg/injection, schedule: Q01DX009 (ip), vehicle: saline with Tween-80) was 103 % of control and the T/C (dose: 50.0 mg/kg/injection, schedule: Q01DX009 (ip), vehicle: saline with Tween-80) was 103 % of control.

With `CCCCNCCC(SSSC(CCNCCCC)c1ccc(Cl)cc1)c1ccc(Cl)cc1` (centres undefined) the T/C (dose: 6.25 mg/kg/injection, schedule: Q04DX003 (ip), vehicle: saline with Tween-80) was 103 % of control, the T/C (dose: 12.5 mg/kg/injection, schedule: Q04DX003 (ip), vehicle: saline with Tween-80) was 88 % of control and the T/C (dose: 25.0 mg/kg/injection, schedule: Q04DX003 (ip), vehicle: saline with Tween-80) was 91 % of control.

In the case of `COc1cc2c(c(OC)c1OC)-c1ccc(OC)c(=O)cc1[C@@H](NC(=O)CF)CC2`, the T/C (dose: 0.04 mg/kg/injection, schedule: Q01DX009 (ip), vehicle: saline) is reported as 113 % of control, the T/C (dose: 0.06 mg/kg/injection, schedule: Q04DX002 (ip), vehicle: saline with Tween-80) is reported as 101 % of control and the T/C (dose: 0.09 mg/kg/injection, schedule: Q01DX001 (ip), vehicle: saline with Tween-80) is reported as 116 % of control. The T/C (dose: 0.09 mg/kg/injection, schedule: Q01DX009 (ip), vehicle: saline with Tween-80) was 122 % of control, the T/C (dose: 0.09 mg/kg/injection, schedule: Q01DX009 (ip), vehicle: saline) was 118 % of control and the T/C (dose: 0.09 mg/kg/injection, schedule: Q04DX003 (ip), vehicle: saline with Tween-80) was 108 % of control. For the same molecule, the T/C (dose: 0.12 mg/kg/injection, schedule: Q04DX002 (ip), vehicle: saline with Tween-80) was 104 % of control, the T/C (dose: 0.18 mg/kg/injection, schedule: Q01DX001 (ip), vehicle: saline with Tween-80) was 119 % of control and the T/C (dose: 0.18 mg/kg/injection, schedule: Q04DX003 (ip), vehicle: saline with Tween-80) was 113 % of control. The T/C (dose: 0.25 mg/kg/injection, schedule: Q04DX002 (ip), vehicle: saline with Tween-80) was 117 % of control, the T/C (dose: 0.37 mg/kg/injection, schedule: Q01DX001 (ip), vehicle: saline with Tween-80) was 114 % of control and the T/C (dose: 0.37 mg/kg/injection, schedule: Q01DX009 (ip), vehicle: saline with Tween-80) was 100 % of control. For the same molecule, the T/C (dose: 0.37 mg/kg/injection, schedule: Q04DX003 (ip), vehicle: saline with Tween-80) was 118 % of control, the T/C (dose: 0.5 mg/kg/injection, schedule: Q04DX002 (ip), vehicle: saline with Tween-80) was 121 % of control and the T/C (dose: 0.75 mg/kg/injection, schedule: Q01DX001 (ip), vehicle: saline with Tween-80) was 121 % of control. For the same molecule, the T/C (dose: 0.75 mg/kg/injection, schedule: Q04DX003 (ip), vehicle: saline with Tween-80) was 116 % of control, the T/C (dose: 1.5 mg/kg/injection, schedule: Q04DX002 (ip), vehicle: saline with Tween-80) was 113 % of control and the T/C (dose: 2.0 micrograms/kg/injection, schedule: Q01DX009 (ip), vehicle: saline with Tween-80) was 97 % of control. The T/C (dose: 5.0 micrograms/kg/injection, schedule: Q01DX009 (ip), vehicle: saline with Tween-80) was 105 % of control and the T/C (dose: 10.0 micrograms/kg/injection, schedule: Q01DX009 (ip), vehicle: saline with Tween-80) was 89 % of control.

In the case of `Cc1cc2cc3cccc[n+]3cc2c2ccccc12`, the T/C (dose: 2.0 mg/kg/injection, schedule: Q01DX Z (ip), vehicle: carboxymethylcellulose (CMC)) is reported as 101 % of control, the T/C (dose: 4.0 mg/kg/injection, schedule: Q01DX Z (ip), vehicle: carboxymethylcellulose (CMC)) is reported as 110 % of control and the T/C (dose: 8.0 mg/kg/injection, schedule: Q01DX Z (ip), vehicle: carboxymethylcellulose (CMC)) is reported as 113 % of control. For the same molecule, the T/C (dose: 16.0 mg/kg/injection, schedule: Q01DX Z (ip), vehicle: carboxymethylcellulose (CMC)) was 113 % of control.

`Cc1c(Cl)cccc1NC(=O)c1ccc(Cl)cc1` was tested, and the T/C [1] was 87 % of control, the T/C [2] was 93 % of control and the T/C [3] was 91 % of control. The T/C [4] was 96 % of control, the T/C [5] was 97 % of control and the T/C [6] was 91 % of control.

`NC(CCl)=NCc1cccnc1` was tested, and the T/C (dose: 12.5 mg/kg/injection, schedule: Q04DX002 (ip), vehicle: saline) was 97 % of control and the T/C (dose: 25.0 mg/kg/injection, schedule: Q04DX002 (ip), vehicle: saline) was 108 % of control.

In the case of `CC(=O)n1cc(C=C2C(=O)CC(C)(C)CC2=O)c2ccccc21`, the T/C (dose: 37.5 mg/kg/injection, schedule: Q01DX009 (ip), vehicle: Klucel (hydroxypropylcellulose) (HPC)) is reported as 89 % of control, the T/C (dose: 75.0 mg/kg/injection, schedule: Q01DX009 (ip), vehicle: Klucel (hydroxypropylcellulose) (HPC)) is reported as 95 % of control and the T/C (dose: 150.0 mg/kg/injection, schedule: Q01DX009 (ip), vehicle: Klucel (hydroxypropylcellulose) (HPC)) is reported as 98 % of control.

In the case of `Nc1ccc2c(c1[N+](=O)[O-])C(=O)c1ccccc1C2=O`, the T/C (dose: 100.0 mg/kg/injection, schedule: Q01DX001 (ip), vehicle: saline) is reported as 92 % of control, the T/C [19] is reported as 95 % of control and the T/C [20] is reported as 97 % of control.

For `CCOP(=O)(NC1C2CCC(C2)C1C)OCC` (centres undefined), the T/C [19] was 98 % of control and the T/C [20] was 102 % of control.

For `CCOC(=O)CNC(=O)OCCN1CCNC1=S`, the T/C [21] was 98 % of control, the T/C [22] was 100 % of control and the T/C [23] was 101 % of control.

`O=Cc1cc2cccnc2s1` was tested, and the T/C [2] was 103 % of control, the T/C [4] was 100 % of control and the T/C [6] was 100 % of control.

With `Nc1cc(Cl)ccc1N1CCCCC1` the T/C [21] was 114 % of control, the T/C [22] was 97 % of control and the T/C [23] was 106 % of control.

With `CCCCCCCCCCCCCCCOc1ccc2ccccc2c1` the T/C [10] was 326 % of control, the T/C [11] was 326 % of control and the T/C [18] was 326 % of control.

— PubChem BioAssay AID248 (DTP/NCI, 2004)
